The results in this text go back to PubChem BioAssay AID1508612.

Molecules are shown by their SMILES.

A short description of this data set: passive permeability, PAMPA, ADME assay (AID 1508612). The settings on record: pH 7.4, 30.0 min, 50.0 µM.

In turn, `Fc1ccc(F)c(Nc2nc(-c3ccncc3)nc3ccccc23)c1` displayed a Papp of 455 ×10⁻⁶ cm/s.
For `COc1cccc(CNc2ccc(S(=O)(=O)Nc3nccs3)cc2)c1N` the value was 28.8 ×10⁻⁶ cm/s.
`Cc1cc(C)c(C(=O)Nc2cccc([S+](=O)([O-])Nc3ccc(Br)cc3)c2)[nH]1`: the Papp came out at 737 ×10⁻⁶ cm/s.
Regarding `Cc1ccc(S(=O)(=O)Nc2ccccc2C(=O)Nc2nc(-c3ccccc3)cs2)cc1`, the Papp was > 1000 ×10⁻⁶ cm/s.
Take `NC(=O)C1CCN(c2nc(-c3ccc(C(F)(F)F)cc3)cs2)CC1`: the Papp is 292 ×10⁻⁶ cm/s.
In the case of `Cc1nn2c(c1-c1ccccc1-c1ccccc1)N(Cc1ccccc1)CCC2`, the Papp is 381 ×10⁻⁶ cm/s.
For `Nc1nc2c(s1)C(c1ccccc1OCc1ccccc1Cl)CC(=O)N2` (configuration not stated) the value was 509 ×10⁻⁶ cm/s; for `CC[C@@H](C)Nc1cc(C(=O)NC2CC3CCC(C2)N3c2ccc(C(=O)C3CC3)cn2)c(C)cc1C(N)=O` (some centres not stated), > 1000 ×10⁻⁶ cm/s.
`O=C1NC(=S)NC(=O)C1=Cc1cccn1-c1ccc(O)cc1` came in with a Papp of 44.1 ×10⁻⁶ cm/s.
For `Cc1ccc(S(=O)(=O)Nc2cc(Cl)ccc2C(=O)Nc2nc(-c3ccccc3)cs2)cc1` the value was 23.4 ×10⁻⁶ cm/s.
For `CN1C(=O)C(=O)N2C(=C[C@]3(c4c[nH]c5ccccc45)c4ccccc4N[C@H]23)C1=O` the value was 209 ×10⁻⁶ cm/s.
`COc1ccc(-n2nc(C3CCCN(C(=O)c4ccccc4F)C3)[nH]c2=O)cc1` (configuration not stated): the Papp stood at 476 ×10⁻⁶ cm/s.
In turn, `CC1=Nc2cc(C(=O)NCCc3ccccc3)ccc2Sc2c(C)ccc(C)c21` showed a Papp of 359 ×10⁻⁶ cm/s.
As for `Cc1ccc2c(c1)N(S(=O)(=O)c1cc(-c3onc(C)c3C)ccc1C)CCO2`, the Papp was 664 ×10⁻⁶ cm/s.
As to `O=C(Nc1nc(-c2ccccc2)cs1)c1ccncc1NS(=O)(=O)c1cccnc1`, the Papp was found to be 50.8 ×10⁻⁶ cm/s.
Turning to `COc1ccc(-c2cc(-c3cccc(NC(C)=O)c3)cn3cncc23)cn1`, the Papp is 39 ×10⁻⁶ cm/s.
As for `Nc1nc2c(s1)C(c1ccc(F)cc1F)CC(=O)N2` (configuration not stated), the Papp was 181 ×10⁻⁶ cm/s.
For the molecule `Fc1ccc(-c2nc(-c3ccncc3)nc3ccccc23)cc1F`, the Papp was > 1000 ×10⁻⁶ cm/s.
As to `COC(=O)c1ccc(Nc2nc(-c3ccncc3)nc3ccccc23)cc1OC`, the Papp stood at 676 ×10⁻⁶ cm/s.
In the case of `Cc1ccc(S(=O)(=O)Nc2cnccc2C(=O)Nc2ccc(S(=O)(=O)Nc3nccs3)cc2)cc1`, the Papp is < 1 ×10⁻⁶ cm/s.
Regarding `Cc1ccccc1C(=O)Nc1ccc2c(c1)CCCN2C(=O)c1cccs1`, the Papp worked out at 687 ×10⁻⁶ cm/s.
For `CCc1[nH]c2ccc(CNC(=O)Cc3cnc4c(C)cccn34)cc2c1C` the value was 405 ×10⁻⁶ cm/s; for `CCN1C(=O)c2ccccc2S(=O)c2ccc(C(=O)NCc3ccc(OC)cc3)cc21` (configuration not stated), 883 ×10⁻⁶ cm/s.
The same measure for `Cc1cc(N[S+](=O)([O-])c2ccc(NC(=O)Cc3ccc(F)c(F)c3)cc2)no1`: 6.43 ×10⁻⁶ cm/s; for `CN(C)c1cccc(-c2cc(N3CCC(C(N)=O)CC3)ncn2)c1`: 37.8 ×10⁻⁶ cm/s; for `Cc1ccc(S(=O)(=O)Nc2ccccc2C(=O)Nc2cnc(-c3ccccc3)cn2)cc1`: > 1000 ×10⁻⁶ cm/s.
As for `CC(C)Oc1ccc(-c2ccc(=O)n(CC(=O)NCCc3ccccc3)n2)cc1`, the Papp is > 1000 ×10⁻⁶ cm/s.
As for `Oc1ccc(-c2nc(C3CC3)nc3c2CCN(Cc2ccc(F)cc2)CC3)cc1`, the Papp is > 1000 ×10⁻⁶ cm/s.
The same measure for `Cc1ccc(S(=O)(=O)Nc2ccccc2C(=O)Nc2nc(-c3ccc(Cl)cc3)cs2)cc1`: 16.6 ×10⁻⁶ cm/s.
In turn, `FC(F)(F)c1ccc(N2CCN(C(=S)Nc3ccccn3)CC2)cc1` returned a Papp of 815 ×10⁻⁶ cm/s.
Take `CC(=O)c1c(C)[nH]c(C(=O)Nc2cccc([S+](=O)([O-])Nc3ccccn3)c2)c1C`: the Papp turned out to be 11.6 ×10⁻⁶ cm/s.
With `CCOc1ccc(CCNC(=O)c2cc3sccc3n2CCN(C)C)cc1OCC`, the Papp is > 1000 ×10⁻⁶ cm/s.
In turn, `Cc1cccc(-n2cnc3cc(C(=O)N4CCCCC4)ccc32)c1` displayed a Papp of 912 ×10⁻⁶ cm/s.
The same measure for `Cc1cn2c(-c3cn[nH]c3)cnc2c(Nc2ccc(C(=O)N3CCNCC3)cc2F)n1`: < 1 ×10⁻⁶ cm/s; for `COc1ccccc1-c1cc2c(ccn2C)c(C(=O)NCC2CCN(C)C(=O)C2)n1` (configuration not stated): 317 ×10⁻⁶ cm/s; for `C[C@@H](c1ccc2nccn2c1)n1nnc2ncc(-c3cnn(C)c3)nc21`: 40.7 ×10⁻⁶ cm/s.
Take `N#Cc1ccc(-c2csc(N3CCC(C(N)=O)CC3)n2)cc1`: the Papp was found to be 406 ×10⁻⁶ cm/s.

Usually Papp stands for a coefficient for how fast a substance crosses the barrier. A higher Papp goes with fast passage.
